Reference: ChEMBL document CHEMBL3137667, “[Drug-induced liver injury; fourteenth updated edition of the bibliographic database of liver injuries and related drugs]” (Gastroenterol Clin Biol, 2004)

What was measured:
[1] = Highest frequency of moderate liver toxicity observed during clinical trials, expressed as a percentage. [column '% BIOL' in source]; conditions: human
[2] = Highest frequency of acute liver toxicity observed during clinical trials, expressed as a percentage. [column '% AIGUE' in source]; conditions: human
[3] = human, serum
[4] = human, serum; remark: listed apart in the source
[5] = human
[6] = human; remark: listed apart in the source
[7] = human; remark: listed apart in the source
[8] = human, serum, 4383 h
[9] = human; remark: listed apart in the source
[10] = human; remark: listed apart in the source
[11] = human; remark: listed apart in the source
[12] = human; remark: listed apart in the source
[13] = human; remark: listed apart in the source
[14] = human; remark: listed apart in the source
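For Hepatotoxicity (association with vascular disease) in this document: count of indexed literature references reporting vascular liver injury in humans, e.g. peliosis hepatitis, hepatic veno-occlusive disease or Budd-Chiari syndrome.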
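For Hepatotoxicity (benign tumour) in this document: value is a count of indexed literature references citing a benign tumour confirmed by histopathology.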
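For Hepatotoxicity (choleostasis) in this document: human cholestatic liver injury, shown by histopathology or by peak ALT or AST elevation over alkaline phosphatase ratio below 2, value counts indexed literature reports.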
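For Hepatotoxicity (chronic liver disease) in this document: chronic liver injury confirmed by histopathology or persistently raised serum aminotransferase activity beyond 6 months, value given as the count of indexed literature references.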
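For Hepatotoxicity (cirrhosis) in this document: value is a count of indexed literature references reporting cirrhosis confirmed by histopathology.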
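For Hepatotoxicity (cytolytic) in this document: human cytolytic liver injury, shown by histopathology or by a ratio above 5 of peak ALT or AST elevation to alkaline phosphatase elevation, value counts indexed references.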
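For Hepatotoxicity (granulomatous hepatitis) in this document: value is a count of indexed literature references reporting granulomatous liver disease confirmed by histopathology.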
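For Hepatotoxicity (malignant tumour) in this document: malignant tumour confirmed by histopathology, value gives the count of indexed literature references reporting it.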
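For Hepatotoxicity (severe hepatitis) in this document: human clinical data: severe hepatitis, meaning potentially life-threatening liver failure or clinically observed cases, the value counts how many indexed literature references report it.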
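For Hepatotoxicity (steatosis) in this document: steatosis confirmed by histopathology, value is the count of indexed references.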

Molecule | Hepatotoxicity (moderate) [1] [%] | Hepatotoxicity (acute) [2] [%] | Hepatotoxicity (moderate) [3] | Hepatotoxicity (acute) [4] | Hepatotoxicity (cytolytic) [5] | Hepatotoxicity (choleostasis) [6] | Hepatotoxicity (severe hepatitis) [7] | Hepatotoxicity (chronic liver disease) [8] | Hepatotoxicity (cirrhosis) [9] | Hepatotoxicity (granulomatous hepatitis) [10] | Hepatotoxicity (association with vascular disease) [11] | Hepatotoxicity (steatosis) [12] | Hepatotoxicity (malignant tumour) [13] | Hepatotoxicity (benign tumour) [14] | Hepatotoxicity (moderate) ([1]; Liver) [%] | Hepatotoxicity (acute) ([2]; Liver) [%] | Hepatotoxicity (cytolytic) ([5]; Liver) | Hepatotoxicity (choleostasis) ([6]; Liver) | Hepatotoxicity (severe hepatitis) ([7]; Liver) | Hepatotoxicity (granulomatous hepatitis) ([10]; Liver)
C[C@H]([C@](O)(Cn1cncn1)c1ccc(F)cc1F)S(C)(=O)=O [GENACONAZOLE] | 33.3 | 0 | 1 | 0 | 0 | 0 | 0 | 0 | 0 | 0 | 0 | 0 | 0 | 0 |  |  |  |  |  | 
C[C@@H](O)[C@H]1C(=O)N2C(C(=O)O)=C(S[C@@H]3CN[C@H](C(=O)Nc4cccc(C(=O)O)c4)C3)[C@H](C)[C@H]12 | 0 | 0 | 4 | 0 | 0 | 0 | 0 | 0 | 0 | 0 | 0 | 0 | 0 | 0 |  |  |  |  |  | 
CN(C)CCOC1=Cc2ccccc2Sc2ccc(Cl)cc21 [ZOTEPINE] | 34.8 | 0 | 8 | 0 | 0 | 0 | 0 | 0 | 0 | 0 | 0 | 0 | 0 | 0 |  |  |  |  |  | 
CC(C)(Oc1ccc(Cl)cc1)C(=O)NC(=O)NCN1CCOCC1 [PLAFIBRIDE] | 20 | 0 | 1 | 0 | 0 | 0 | 0 | 0 | 0 | 0 | 0 | 0 | 0 | 0 |  |  |  |  |  | 
Cc1ncc(CNC(=O)N(CCCl)N=O)c(N)n1 [NIMUSTINE] | 3.6 | 0 | 2 | 0 | 0 | 0 | 0 | 0 | 0 | 0 | 0 | 0 | 0 | 0 |  |  |  |  |  | 
CN(C)CCc1c[nH]c2ccc(C[C@H]3COC(=O)N3)cc12 [ZOLMITRIPTAN] | 0 | 0 | 1 | 0 | 0 | 0 | 0 | 0 | 0 | 0 | 0 | 0 | 0 | 0 |  |  |  |  |  | 
POLOXAMER | 7.7 | 0 | 1 | 0 | 0 | 0 | 0 | 0 | 0 | 0 | 0 | 0 | 0 | 0 |  |  |  |  |  | 
CC(=O)c1ccc2c(c1)N(CCCN1CCC(CCO)CC1)c1ccccc1S2 [PIPERACETAZINE] | 39 | 0 | 1 | 0 | 0 | 0 | 0 | 0 | 0 | 0 | 0 | 0 | 0 | 0 |  |  |  |  |  | 
CN(Cc1cc(Br)cc(Br)c1N)C1CCCCC1 [BROMHEXINE] | 0 | 0 | 1 | 0 | 0 | 0 | 0 | 0 | 0 | 0 | 0 | 0 | 0 | 0 |  |  |  |  |  | 
Cc1cc(C(=O)NCCc2ccc(S(=O)(=O)NC(=O)NN3CCCCCC3)cc2)no1 [GLISOXEPIDE] | 0 | 0 | 1 | 0 | 0 | 0 | 0 | 0 | 0 | 0 | 0 | 0 | 0 | 0 |  |  |  |  |  | 
CC1(C)S[C@@H]2[C@H](NC(=O)[C@H](NC(=O)N3CCNC3=O)c3ccccc3)C(=O)N2[C@H]1C(=O)O [AZLOCILLIN] | 11.1 | 0 | 3 | 0 | 0 | 0 | 0 | 0 | 0 | 0 | 0 | 0 | 0 | 0 |  |  |  |  |  | 
O=C(Cc1cccs1)N[C@@H]1C(=O)N2C(C(=O)[O-])=C(C[n+]3ccccc3)CS[C@H]12 [CEPHALORIDINE] | 0 | 0 | 1 | 0 | 0 | 0 | 0 | 0 | 0 | 0 | 0 | 0 | 0 | 0 |  |  |  |  |  | 
NS(=O)(=O)c1cc(C2(O)NC(=O)c3ccccc32)ccc1Cl (centres undefined) [CHLORTHALIDONE] | 0 | 0 | 0 | 2 | 0 | 0 | 0 | 0 | 0 | 0 | 0 | 0 | 0 | 0 |  |  |  |  |  | 
Nc1ncn([C@@H]2O[C@H](CO)[C@@H](O)[C@@H]2O)c(=O)n1 [FAZARABINE] |  |  | 1 | 0 |  |  |  | 0 | 0 |  | 0 | 0 | 0 | 0 | 46.4 | 0 | 0 | 0 | 0 | 0
COc1cccc2c1C(=O)c1c(O)c3c(c(O)c1C2=O)C[C@@](O)(/C(C)=N/NC(=O)c1ccccc1)C[C@@H]3O[C@H]1C[C@H](N)[C@H](O)[C@H](C)O1 [ZORUBICIN] | 51.7 | 17.2 | 1 | 1 | 0 | 1 | 1 | 0 | 0 | 0 | 0 | 0 | 0 | 0 |  |  |  |  |  | 
N=C(N)NCCCCCCC(=O)NC(O)C(=O)NCCCCNCCCN (centres undefined) | 3.6 | 0 | 1 | 0 | 0 | 0 | 0 | 0 | 0 | 0 | 0 | 0 | 0 | 0 |  |  |  |  |  | 
